According to US20240261274A1, “TREATMENT OF MYC-DRIVEN CANCERS WITH GSPT1 DEGRADERS” (MONTE ROSA THERAPEUTICS, INC., priority 2021, published 2024):
Read-outs that look alike come from different tables or passages of the source.

What was measured:
GSPT1 [1] = molecular target: T1, GSPT1 (Homo sapiens, UniProt P15170+Q96SW2); test: GSPT1 levels in NCI-H1155 tumors by western blotting (compound 210); format: in vivo, mice; design: from tissue; host or cells: NCI-H1155 subcutaneous xenograft tumours from BALB/c nude mice; conditions: all three dose levels, 6 hours after the third dose
T1 sequence (P15170 whole entry): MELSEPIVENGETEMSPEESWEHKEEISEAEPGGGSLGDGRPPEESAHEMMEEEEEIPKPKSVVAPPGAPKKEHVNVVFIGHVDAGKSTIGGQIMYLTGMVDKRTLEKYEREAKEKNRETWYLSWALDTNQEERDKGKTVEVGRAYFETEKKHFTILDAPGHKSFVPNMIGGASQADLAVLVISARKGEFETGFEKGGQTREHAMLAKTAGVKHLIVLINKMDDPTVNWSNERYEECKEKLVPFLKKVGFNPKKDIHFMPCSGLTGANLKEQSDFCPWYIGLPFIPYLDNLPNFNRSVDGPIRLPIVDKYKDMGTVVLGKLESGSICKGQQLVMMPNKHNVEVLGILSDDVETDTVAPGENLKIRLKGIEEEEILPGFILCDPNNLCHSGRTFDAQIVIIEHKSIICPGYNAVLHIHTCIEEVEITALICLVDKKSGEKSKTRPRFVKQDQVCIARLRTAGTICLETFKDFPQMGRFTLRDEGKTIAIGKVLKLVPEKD
T1 sequence (Q96SW2 whole entry): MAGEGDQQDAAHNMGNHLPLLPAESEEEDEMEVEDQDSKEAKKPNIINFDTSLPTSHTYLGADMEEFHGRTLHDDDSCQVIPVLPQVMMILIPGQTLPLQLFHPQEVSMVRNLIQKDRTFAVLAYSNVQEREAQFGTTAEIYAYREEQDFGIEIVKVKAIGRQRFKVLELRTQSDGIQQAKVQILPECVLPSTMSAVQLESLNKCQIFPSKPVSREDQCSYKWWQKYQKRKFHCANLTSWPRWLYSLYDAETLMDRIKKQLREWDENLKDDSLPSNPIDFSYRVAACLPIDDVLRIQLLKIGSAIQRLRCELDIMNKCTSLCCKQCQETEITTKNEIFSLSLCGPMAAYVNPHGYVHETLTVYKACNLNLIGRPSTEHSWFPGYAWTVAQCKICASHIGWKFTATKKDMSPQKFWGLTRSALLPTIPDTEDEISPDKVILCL
T1 sequence (Q16531 whole entry partner): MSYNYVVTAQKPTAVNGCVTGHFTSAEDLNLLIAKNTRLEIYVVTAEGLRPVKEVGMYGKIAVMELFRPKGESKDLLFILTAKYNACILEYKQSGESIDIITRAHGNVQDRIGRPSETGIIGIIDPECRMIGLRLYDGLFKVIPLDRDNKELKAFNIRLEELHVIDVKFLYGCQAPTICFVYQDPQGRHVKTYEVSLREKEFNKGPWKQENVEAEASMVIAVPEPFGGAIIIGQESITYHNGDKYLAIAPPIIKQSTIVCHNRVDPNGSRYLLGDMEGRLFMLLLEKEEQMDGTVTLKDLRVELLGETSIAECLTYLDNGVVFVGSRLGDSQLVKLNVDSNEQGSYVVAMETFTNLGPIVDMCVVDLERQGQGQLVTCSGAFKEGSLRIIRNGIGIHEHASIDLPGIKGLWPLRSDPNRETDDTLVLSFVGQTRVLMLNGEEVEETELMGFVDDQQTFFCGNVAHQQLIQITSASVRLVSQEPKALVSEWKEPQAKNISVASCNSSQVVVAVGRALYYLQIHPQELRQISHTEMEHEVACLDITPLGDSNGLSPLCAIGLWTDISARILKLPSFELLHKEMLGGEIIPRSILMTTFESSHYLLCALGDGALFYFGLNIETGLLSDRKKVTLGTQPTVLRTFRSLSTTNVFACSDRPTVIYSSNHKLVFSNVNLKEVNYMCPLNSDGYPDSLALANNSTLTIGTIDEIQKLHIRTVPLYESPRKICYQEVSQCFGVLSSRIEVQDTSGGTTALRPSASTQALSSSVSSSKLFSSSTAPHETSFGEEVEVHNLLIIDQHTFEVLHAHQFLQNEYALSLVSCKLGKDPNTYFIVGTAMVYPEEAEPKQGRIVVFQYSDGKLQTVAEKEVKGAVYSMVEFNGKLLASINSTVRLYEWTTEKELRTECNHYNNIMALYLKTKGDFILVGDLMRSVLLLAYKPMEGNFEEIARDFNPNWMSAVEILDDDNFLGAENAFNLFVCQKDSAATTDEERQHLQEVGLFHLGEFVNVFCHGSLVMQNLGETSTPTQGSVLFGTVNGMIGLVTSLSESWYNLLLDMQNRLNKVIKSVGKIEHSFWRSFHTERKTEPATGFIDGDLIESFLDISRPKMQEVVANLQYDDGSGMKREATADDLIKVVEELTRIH
Experimental: GSPT1 levels in tumors were determined by western blotting 6 hours after the third dose. Western blotting was performed as described previously using GAPDH as loading control.

[2] = test system: NSCLC patient derived xenografts; test: Patient derived NSCLC xenograft models (PDX), tumor progression free probability; format: in vivo, immunodeficient mice; conditions: high L-Myc or N-Myc expressing PDX models, oral 10 mg/kg daily, progression >800 mm^3
Experimental: Patient derived NSCLC xenograft models (PDX) were made using immunodeficient mice. 14 PDXs were made for high L-Myc or N-Myc expressing NSCLC samples and 19 PDXs were made for low L-Myc or N-Myc expressing NSCLC samples. Animals were divided into a treatment group that received an oral dose of 10 mg/kg Compound 345 daily and a vehicle-only control group. […] Data from these experiments are shown in FIG. 14A (high L-Myc or high N-Myc expressing) and FIG. 14B (low L-Myc or low N-Myc expressing). Tumor progression free probability was plotted over time, with a threshold of tumor progression set at greater than 800 mm^3.
We used log 2FPKM cutoff of 1.5 and 3.4 for N-Myc and L-Myc expression respectively. PDX tumor fragments (2-3 mm in diameter) were inoculated subcutaneously at the upper right dorsal flank of 6-8 weeks old female BALB7c or NODS/CID nude mice. […] Mice were PO dosed with vehicle or Compound 345 at 10 mg/kg daily and tumor volumes recorded at least twice a week. […] For each mouse, we calculated the first day the tumor volume reached 800 mm3 as the endpoint. […] Kaplan-Meier curves were generated in R (ver 4.0.2, survminer package) and log-rank (Mantel-Cox) test P-values were calculated using R (ver 4.0.2, survival package) to assess the differences in survival curves between the Compound 345-treated and vehicle treated samples. […]

GSPT1 [3] = molecular target: T1, GSPT1; test: GSPT1 degradation by immunoblotting in cancer cell lines (Compound 345); format: cell-based; design: endogenous in cells; host or cells: MM1 S (ATCC CRL-2974); conditions: for GSPT1 degradation (immunoblots): 0.03, 0.3, 3 μM; for DC50: read-out: GSPT1 DC50
Experimental: Two high N-Myc expressing NSCLC cell lines (NCI-H155 and ABC-1) and two low N-Myc expressing NSCLC cell lines (NCI-H2023 and NCI-H441) were treated with Compound 345 in culture. Cells were treated with increasing concentrations of the compound (0.0; 0.00064; 0.0032; 0.016; 0.08; 0.4; 2.0; 10; and 30 nM), lysates were prepared, SDS-PAGE and immunoblotting was performed, and transfer membranes were probed for GSPT1 and GAPDH as a loading control. Expression levels of GSPT1 detected in the immunoblots of this experiment are plotted against concentration of Compound 345 in FIG. 10B. DC50 values (the concentration of the compound at which the target protein is degraded by 50%) were estimated for each cell line. NCI-H155, DC50=14 nM; ABC-1, DC50=76 nM; NCI-H2023, DC50=18 nM; NCI-H441, DC50=8.7 nM. Estimated Dmax for all cell lines was 95%-99%.
GSPT1 and N-Myc western blotting analyses from cell line lysates: NCI-H1155, NCI-H2023, NCI-H441, ABC-1, NCI-H1836, NCI-H1876, MM.1S, DOHH2 and WSU-DLCLC2 cells were typically seeded in a 6 or 12 well plate (0.3 to 1.0×10^6 cells/mL) and incubated overnight. Compound 345 was dissolved in DMSO to obtain a 10 mM stock solution, and aliquots were stored at −20° C. The next day, cells were treated with various concentrations of Compound 345 or DMSO (Sigma, D2650) using a HP D300 dispenser (Tecan). Controls were pretreated for 30 minutes with Bortezomib (0.2 μM). Cells were washed with ice cold PBS at the indicated timepoints post addition of Compound 345 and lysed with 50 to 100 μL lysis buffer containing RIPA buffer (Invitrogen, R0278) and a mix of protease inhibitor cocktail (Sigma, P8340, 5726 and 0044). Protein concentration was assessed using the BCA assay (Pierce™ Rapid Gold BCA Protein Assay Kit, A53227) and 10 μg of protein was typically loaded onto a TGX Stain free 4-20% Criterion gel (Biorad, 5678095) for separation. Gel was transferred onto a 0.2 μm nitrocellulose membrane using the TransBlot transfer system (Biorad). Membranes were blocked in Every Blot Blocking Buffer (Biorad, 12010020) and incubated overnight at 4° C. with either of the following primary antibody: anti-GSPT1 diluted 1/5000th (Sigma, HPA052488), anti-N-Myc clone D1V2A diluted 1/1000th (Cell Signaling Technology, 84406), anti-α-Tubulin clone DM1A Alexa Fluor® 488 Conjugated (Cell Signaling Technology, Cat. No. CST8058) or anti-GAPDH Alexa647-coupled diluted 1/2500th (Invitrogen, MA5-15738-A647). The next day, a secondary HRP-conjugated goat anti-rabbit secondary antibody (Invitrogen, A16110) was used to allow detection of unlabelled primary antibodies. Membranes were imaged on a ChemiDoc imager (Biorad) using either fluorescence or chemiluminescence detection. Images were quantified using the Image Lab Software Version 6.1 (Biorad). Images were adjusted for alignment and contrast. Columns were manually defined to enable the band detection by the software. Band intensities, or densitometries, were exported to Excel (Microsoft® Excel® for Microsoft 365 MSO Version 2110) for further analysis. Briefly, band intensity for the protein of interest was normalized to the DMSO control, before being normalized to the GAPDH band intensity for the same column. Normalised data was transferred to GraphPad Prism 8.1.2 (GraphPad) and fitted using a four parameters models ([Inhibitor] vs. response—Variable slope) defined by the following equation: Y=Dmax+(Top−Dmax)/(1+(DC50/X)^HillSlope). Key degradation parameters reported included DC50 (concentration at which the GSPT1 total protein levels are reduced by 50%) and Dmax (maximum fractional amount of protein degraded).

[4] = MM1 S multiple myeloma cells, 24 hours

Compound | GSPT1 degradation in tumors (GSPT1 [1]) | tumor progression free probability [2] | Dmax (GSPT1 [3]; [4]) | GSPT1 degradation (immunoblots) (GSPT1 [3]; NCI-H155 and NCI-H2023, 0, 2, 6 hours) | GSPT1 degradation (immunoblots) (GSPT1 [3]; SCLC cell lines NCI-H1836 and NCI-H1876, up to 24 hours) | Dmax (GSPT1 [3]; WSUDLCL2, WSU-DLCL2 triple hit lymphoma cells, 24 hours) | Dmax (GSPT1 [3]; all cell lines (NCI-H155, ABC-1, NCI-H2023, NCI-H441)) | DC50 (GSPT1 [3]; ABC-1 (high N-Myc NSCLC)) | DC50 (GSPT1 [3]; [4]) | DC50 (GSPT1 [3]; NCI-H155 (high N-Myc NSCLC)) | DC50 (GSPT1 [3]; NCI-H441 (low N-Myc NSCLC)) | DC50 (GSPT1 [3]; NCI-H2023 (low N-Myc NSCLC)) | DC50 (GSPT1 [3]; WSU-DLCL2 triple hit lymphoma cells, 24 hours)
Cc1ccc(NC(=O)OCc2ccc3c(c2)C(=O)N(C2CCC(=O)NC2=O)C3)cc1Cl (stereo not shown) [Compound 210] | Complete degradation of GSPT1 |  |  |  |  |  |  |  |  |  |  |  | 
O=C1CCC(N2Cc3ccc(COC(=O)Nc4cc(OC(F)(F)F)ccc4F)cc3C2=O)C(=O)N1 (stereo not shown) [Compound 345, (2-(2,6-dioxopiperidin-3-yl)-3-oxoisoindolin-5-yl)methyl(2-fluoro-5-(trifluoromethoxy)phenyl)carbamate] |  | significantly extended the probability that an animal remained tumor-free | 100% | efficient degradation of GSPT1 in a time and dose dependent manner | efficient degradation of GSPT1 in SCLC cell lines in a time and dose dependent manner | 100% | 95 to 99% | 76 nM | 6 nM | 14 nM | 8.7 nM | 18 nM | 24 nM
